Results on 2 compounds are retold here after publication PMC11821233, “Impact of Bioactive Ingredients on the Fecal Excretion of Aflatoxin B1 and Ochratoxin A in Wistar Rats” (Molecules, 2025).

Values joined by “and” are separate entries in the source; they are usually repeats but may differ in a detail not shown here. Equal values may be shown once. Read-outs that look alike come from different tables or passages of the source.

Experiment in data set [1]: not given
This is another data set of the same source.

[2] abbreviates: females, feces collected in the fourth week of the in vivo study, label = diet group, LOD 0.1 µg/kg.
Where [3] appears, read: males, feces collected in the fourth week of the in vivo study, label = diet group, LOD 0.1 µg/kg.

On to aflatoxin B1 [AFB1], for which the “Concentration of OTA in rat feces” value (rat, in vivo) is given as “<LOD”. In addition, the “Concentration of AFB1 in rat feces” value in data set [1] (rat, in vivo) is 52 ± 61 µg mycotoxin/kg dry feces and 91 ± 77 µg mycotoxin/kg dry feces.

As for `C[C@@H]1Cc2c(Cl)cc(C(=O)N[C@@H](Cc3ccccc3)C(=O)O)c(O)c2C(=O)O1` [OTA, ochratoxin A], the “Concentration of OTA in rat feces” value is, setting by setting: under setting [2], 933 ± 512 µg mycotoxin/kg dry feces; under setting [3], 1729 ± 712 µg mycotoxin/kg dry feces. Besides, the “Concentration of AFB1 in rat feces” value in data set [1] (setting [2]) and in data set [1] (setting [3]) was “<LOD” in each case.
